Our source for the TAP affinity values is patent EP1408048A1, “Vaccines of enhanced immunogenicity, and methods for preparing such vaccines” (INSTITUT NATIONAL DE LA SANTE ET DE LA RECHERCHE MEDICALE …, priority 2002, dated 2004).

The test system of this assay is TAP. Briefly: TAP competitive binding assay with radio-labeled reporter peptide R9L. To be noted: result in words; TAP affinity = inverse of the IC50; reporter peptide R9L at 300 nM. As for the experimental part:
TAP affinities were determined in a competitive binding assay. IC50 values for competitor test peptides were normalized with respect to the IC50 of reporter peptide […] (SEQ ID N° 2).
Determination of HLA-A2 and TAP affinities. […] Results are expressed as inverse normalized IC50 (1/IC50 of test peptide/ IC50 of cold reporter peptide).

For the sequence RRYNASTEL [R9L], the TAP affinity entry was “high”.
